{
  "source": "patent US5854010A",
  "about": "“Bioassay for detecting 2,3,7,8-tetrachlorodibenzo-para-dioxin and TCDD-like compounds and novel recombinant cell line useful therefor” (priority 1997, dated 1998)",
  "key": {"H4L1.1c4 cells": {"system": "H4L1.1c4 cells", "assay": "TCDD-inducible luciferase activity, stably transfected clonal cell line", "type": "cell-based, rat", "conditions": "24 h", "protocol": "Using the stabilized luciferase assay system (purchased from Promega), luciferase activity in an aliquot of the cleared lysed cell supernatant (20 μl) was determined by mixing it with 100 µl of luciferase assay reagent (purchased from Promega) and measuring the resulting luminescence in a Turner Luminometer or Dynatech ML3000 microplate luminometer (light output was integrated over 1 minute after a delay time of 30 seconds).\nUsing a microplate adaptation of the method reported by Bradford in \"A Rapid Sensitive Method for the Quantitation of Microgram Quantities of Protein Utilizing the Principle of Protein-Dye Binding\", Anal. Biochem., […], pp. 248-254 (1976), luciferase activity was standardized to the protein concentration of the supernatant (with bovine serum albumin as the protein standard). Because of instrument differences in luminescence measurement and data output, luciferase activity was determined as relative light units (RLU) per microgram of protein, which was converted to milligram of protein as reported in the Tables below. […]\nMore particularly, isolated clones were grown until confluent, and then incubated in the absence or presence of TCDD (1 nM solubilized in DMSO) for 24 hours. After the incubation, luciferase activity was determined as described above."}, "[1]": {"system": "Human 101L cells (recombinant HepG2), luciferase", "conditions": "Table 3 comparison, Postlind et al.; read-out: ED50 (the source's name); cited from earlier work"}, "mouse H1L1.1 cells [2]": {"system": "mouse H1L1.1 cells", "assay": "Antagonism of TCDD luciferase induction by 2,2',5,5'-TCB (FIG. 7)", "type": "cell-based", "conditions": "TCDD 5 nM, 24 h", "protocol": "(§1) The bar graph of FIG. 7 illustrates that 2,2',5,5'-TCB antagonizes induction of luciferase activity by TCDD in a species-specific manner, and thus, 2,2',5,5'-TCB is not a TCDD-like compound as defined herein. In particular, six-well plates containing the indicated cell lines were incubated with DMSO (control), with TCDD (5 nM), with 2,2',5,5'-TCB (25 μM), or with both TCDD (5 nM) and 2,2',5,5'-TCB (25 μM) for 24 hours. Luciferase activity in cell lysates was determined as described above. Values represent the mean ± the standard evaluation of at least triplicate determinations."}, "rat H4L1.1c4 cells": {"system": "rat H4L1.1c4 cells", "assay": "Antagonism of TCDD luciferase induction by 2,2',5,5'-TCB (FIG. 7)", "type": "cell-based", "conditions": "TCDD 5 nM, 24 h", "protocol": "as §1"}, "human HG2L1.1c3 cells": {"system": "human HG2L1.1c3 cells", "assay": "Antagonism of TCDD luciferase induction by 2,2',5,5'-TCB (FIG. 7)", "type": "cell-based", "conditions": "TCDD 5 nM, 24 h", "protocol": "as §1"}, "[3]": {"system": "guinea pig G16L1.1c8 cells", "assay": "Antagonism of TCDD luciferase induction by 2,2',5,5'-TCB (FIG. 7)", "type": "cell-based", "conditions": "TCDD 5 nM, 24 h", "protocol": "as §1"}, "mouse H1L1.1 cells [4]": {"system": "mouse H1L1.1 cells", "assay": "Luciferase induction by TCDD in DMSO or serum, 96-well, 4 h; detection limits (FIG. 8)", "type": "cell-based", "protocol": "Specifically, since it is desired to utilize the present bioassay system directly to detect PAHs in samples without the need for solvent extraction and concentration, the dose-dependence of luciferase induction in cells incubated with increasing concentrations of TCDD in serum versus that observed with increasing concentrations of TCDD in DMSO was examined. In other words, the present bioassay system should be advantageously employed directly with a sample of serum from an animal or human, where the sample may contain TCDD or other PAHs and the serum is the solvent, whereby solvent extraction of the sample with DMSO as the solvent is unnecessary.\nThe cells were incubated with the respective increasing concentrations of TCDD for 4 hours and luciferase activity of cell lysates determined as follows. […]\nAfter incubation for an additional 15 minutes, luciferase activity in the lysed cells was determined. Luciferase activity was sensitively measured using its bioluminescent substrate, luciferin in a Dynatech ML3000 microplate luminometer. In these experiments, cells either kept intact or lysed using luciferase lysis buffer (purchased from Promega) and luciferase activity in an aliquot of the lysate was determined by automatic injection of assay reagent and measurement of the resulting bioluminescence."}, "[5]": {"system": "Rat H4IIE cells, CYP1A1/EROD", "conditions": "Table 3 comparison, Kennedy et al., cited from earlier work"}},
  "note": "pEC50: −log10 of the molar value.",
  "data": [
    {"compound": "Clc1cc2c(cc1Cl)Oc1cc(Cl)c(Cl)cc1O2", "note": "[TCDD, 2,3,7,8-tetrachlorodibenzo-para-dioxin]", "values": [
      {"measurement": "fold induction", "setting": "H4L1.1c4 cells; Rattus norvegicus, TCDD 1 nM vs DMSO", "result": 25},
      {"measurement": "Luciferase activity, TCDD in DMSO", "setting": "H4L1.1c4 cells; TCDD 1 nM, mean ± SD of triplicate assays", "result": "0.49 ± 0.03", "unit": "RLU/mg protein"},
      {"measurement": "pEC50", "setting": "[1]", "result": 9.46},
      {"measurement": "Luciferase induction by TCDD alone", "setting": "mouse H1L1.1 cells [2]", "result": "induced luciferase activity"},
      {"measurement": "Luciferase induction by TCDD alone", "setting": "rat H4L1.1c4 cells", "result": "induced luciferase activity"},
      {"measurement": "Luciferase induction by TCDD alone", "setting": "human HG2L1.1c3 cells", "result": "induced luciferase activity"},
      {"measurement": "Luciferase induction by TCDD alone", "setting": "[3]", "result": "induced luciferase activity"},
      {"measurement": "Relative potency (ED50) for luciferase induction, TCDD-serum versus TCDD-DMSO", "setting": "mouse H1L1.1 cells [4]", "result": "significantly lower for the TCDD-serum sample than for the TCDD-DMSO sample"},
      {"measurement": "Induction of luciferase by TCDD-containing serum", "setting": "mouse H1L1.1 cells [4]; TCDD in serum", "result": "dose-dependent manner"},
      {"measurement": "MDL (minimal detection level)", "setting": "[5]", "result": 10, "unit": "pM"},
      {"measurement": "pEC50", "setting": "[5]; read-out: ED50 (the source's name)", "result": 10.00}
    ]}
  ]
}
